Assay results reported in patent US8461166B2, “Polyalkylene glycol derivatives of inhibitors of epidermal growth factor receptor tyrosine kinase” (Hadasit Medical Research Services and Development Ltd., priority 2005, dated 2013).
Converted amounts (≈) assume the structure as drawn.

Legend:
[1] = Partition coefficient determination (1-octanol/buffer, HPLC); type: physicochemical; conditions: 1-octanol / sodium phosphate buffer 0.1 M, pH 7.4; read-out: Log P (partition coefficient)
Description: Partition coefficient determination: Compounds 1a-c and 10b, ML04 and ML05 (3 mg) were dissolved in sodium phosphate buffer (0.1 M, pH 7.4, 5 ml) and 1-octanol (1 ml) and the resulting mixture was vortexed for 2 minutes, filtered, and maintained at room temperature for 10 minutes. The reaction mixture was then centrifuged at 4000 g for 10 minutes. Fifty (50) μl portions were taken from the organic (1-octanol) and from the aqueous (buffer) layers, and were dissolved in 0.45 ml acetonitrile. The samples were analyzed by HPLC system (C-18 analytical column, a mixture of 55% acetonitrile:45% acetate buffer 0.1 M, pH 3.8 as a mobile phase, flow rate of 1 ml/minute). The partition coefficients (Log P) were determined by the concentration ratio of the tested compound in the organic phase and the aqueous phase. Measurements were performed in triplicate.

[2] = Water solubility determination (HPLC); type: physicochemical; conditions: aqueous buffer, thermodynamic from solid; MOPS buffer pH 7.4, room temperature
Description: DMSO (1 ml) and MOPS buffer pH 7.4 (1 ml) were separately added to test tubes containing the tested compound (Compounds 1a-c and 10b, ML04 or ML05), such that for each compound, two test tubes were prepared. The tubes were sonicated at room temperature for 20 minute, left intact for 10 minutes, and were then filtered through a 0.45 μm filter. Each of the DMSO solutions was diluted 10-folds with DMSO. A 50 μl sample of each solution was analyzed by HPLC (using C-18 analytical column, a mixture of 55% CH3CN:45% acetate buffer 0.1 M, pH 3.8, as a mobile phase at a flow rate of 1 ml/minute, and a UV detector operated at 254 nm). Measurements were performed in triplicate.

[3] = target: T1, EGFR (Homo sapiens, UniProt P00533); experiment: Irreversibility test protocol: EGFR autophosphorylation inhibition in intact A431 cells (Western blot); type: cell-based; conditions: for irreversible inhibitory characteristic (irreversible binding to EGFR): A431 cells, EGF stimulation 8 hours after removal of the inhibitor vs immediately after
T1 construct: endogenous in cells; host or cells: A431 human epidermoid vulval carcinoma cells
T1 sequence (P00533 25-1210): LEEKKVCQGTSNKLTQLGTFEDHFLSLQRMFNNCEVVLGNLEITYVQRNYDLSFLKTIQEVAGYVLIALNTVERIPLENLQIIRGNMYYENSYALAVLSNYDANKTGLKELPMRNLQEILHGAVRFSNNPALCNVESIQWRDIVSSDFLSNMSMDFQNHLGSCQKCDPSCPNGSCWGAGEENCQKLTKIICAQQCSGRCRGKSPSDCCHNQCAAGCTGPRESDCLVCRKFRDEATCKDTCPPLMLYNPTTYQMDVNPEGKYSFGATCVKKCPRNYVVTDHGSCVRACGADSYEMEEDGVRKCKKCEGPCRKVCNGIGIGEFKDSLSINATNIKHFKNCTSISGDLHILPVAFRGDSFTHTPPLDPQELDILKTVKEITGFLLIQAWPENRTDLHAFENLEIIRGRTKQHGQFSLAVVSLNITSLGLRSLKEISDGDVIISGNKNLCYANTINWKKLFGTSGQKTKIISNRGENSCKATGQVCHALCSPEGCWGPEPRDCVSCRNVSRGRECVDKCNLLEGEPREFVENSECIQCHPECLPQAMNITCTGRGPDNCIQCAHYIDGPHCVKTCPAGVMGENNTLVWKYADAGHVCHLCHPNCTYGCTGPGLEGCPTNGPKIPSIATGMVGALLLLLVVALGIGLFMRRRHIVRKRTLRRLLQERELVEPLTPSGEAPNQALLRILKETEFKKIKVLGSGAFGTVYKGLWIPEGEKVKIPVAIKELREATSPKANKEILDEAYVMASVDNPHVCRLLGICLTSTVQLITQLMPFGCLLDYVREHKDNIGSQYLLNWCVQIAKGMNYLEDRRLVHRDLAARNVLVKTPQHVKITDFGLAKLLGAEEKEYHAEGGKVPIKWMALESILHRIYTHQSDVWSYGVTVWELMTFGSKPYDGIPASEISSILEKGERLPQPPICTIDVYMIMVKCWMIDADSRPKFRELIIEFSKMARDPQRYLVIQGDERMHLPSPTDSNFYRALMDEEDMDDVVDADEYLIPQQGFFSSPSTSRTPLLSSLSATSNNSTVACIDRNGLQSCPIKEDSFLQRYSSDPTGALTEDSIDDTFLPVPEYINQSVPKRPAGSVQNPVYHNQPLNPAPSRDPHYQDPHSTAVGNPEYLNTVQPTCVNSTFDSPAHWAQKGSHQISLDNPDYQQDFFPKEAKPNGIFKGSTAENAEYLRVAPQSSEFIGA
Description: Irreversibility Test Protocol: The inhibitory potency of compounds 1a-c, as well as the irreversible nature of EGFR inhibition thereof were evaluated in intact A431 cells, according to published procedures (Smail et al., 1999). In brief, A431 human epidermoid vulval carcinoma were grown in six-well plates for 48 hours and further maintained in serum-free media for additional 18 hours. Duplicate sets of cells were incubated with increasing concentrations of the tested inhibitor for one hour. One set of the cells was thereafter stimulated with EGF, immediately after removal of the tested inhibitor. Another set of the cells was washed to remove the inhibitor, and EGF stimulation was carried out 8 hours after removal of the inhibitor from the medium. Cell lysates were prepared and loaded onto SDS-PAGE (8% acryl amide) for Western Blot analysis, and the extent of EGFR phosphorylation was evaluated by measuring the signal intensity of the corresponding phosphotyrosine band using a mix of anti-phosphotyrosine antibodies, PY20 (Santa Cruz Biotechnology Inc.) and 4G10 (produced from Su4G10 hybridoma cells). The degree of EGFR phosphorylation was measured for each set of cells and the IC50 values of Compounds 1a-c and 10b, vis-à-vis the level of EGFR's phosphotyrosine content were determined. A minimum of two different assays with similar results were considered. Each experiment was performed in duplicates.
The inhibitory potency of exemplary compounds according to the present embodiments, as well as the extent of their irreversible inhibition of the EGFR were first evaluated in intact A431 cells, using the protocol described hereinabove. The IC50 values were determined by the extent of EGFR phosphorylation at each inhibitor concentration either immediately after or 8 hours post removal of the tested inhibitor from the medium.

SMILES | logP [1] | solubility at 20 min [2] [µg/mL] | irreversible inhibitory characteristic (irreversible binding to EGFR) [3] | IC50 ([3]; intact A431 cells, 1 hour incubation with inhibitor, EGF stimulation, read-out: IC50 vis-à-vis the level of EGFR's phosphotyrosine content) [nM] | melting point [°C]
CN(C)CC=CC(=O)Nc1cc2c(Nc3cc(Cl)c(Cl)cc3F)ncnc2cc1OCCOCCOCCOCCF [Compound 10b, 4-dimethylamino-but-2-enoic acid {4-(4,5-Dichloro-2-fluoro-phenylamino)-7-(2-{2-[2-(2-fluoro-ethoxy)-ethoxy]-ethoxy}-ethoxy)-quinazoline-6-yl}-amide] | 3.7 | 3.5 (≈ 5.57 µM) | irreversible inhibitory characteristic | 5 | 
O=C(CCl)Nc1cc2c(Nc3cc(Cl)c(Cl)cc3F)ncnc2cc1OCCOCCOCCOCCOCCOCCF [Compound 1c, 2-Chloro-N-(4-(4,5-Dichloro-2-fluoro-phenylamino)-7-{2-[2-(2-{2-[2-(2-fluoro-ethoxy)-ethoxy]-ethoxy}-ethoxy)-ethoxy]-ethoxy}-quinazoline-6-yl)-acetamide] |  |  | irreversibly bind to the EGFR |  | 
CN(C)CC=CC(=O)Nc1ccc2ncnc(Nc3cc(Cl)c(Cl)cc3F)c2c1 [ML04, 4-dimethylamino-but-2-enoic acid [4-(3,4-dichloro-6-fluoro-phenylamino)-quinazoline-6-yl]-amide, reference compound] | 3.9 | 0.14 (≈ 0.322 µM) |  |  | 
O=C(CCl)Nc1cc2c(Nc3cc(Cl)c(Cl)cc3F)ncnc2cc1OCCOCCF [Compound 1a, 2-Chloro-N-{4-(4,5-Dichloro-2-fluoro-phenylamino)-7-[2-(2-fluoro-ethoxy)-ethoxy]-quinazoline-6-yl}-acetamide] |  |  | irreversibly bind to the EGFR |  | 167 to 169
O=C(CCl)Nc1cc2c(Nc3cc(Cl)c(Cl)cc3F)ncnc2cc1OCCOCCOCCOCCF [Compound 1b, 2-Chloro-N-[4-(4,5-Dichloro-2-fluoro-phenylamino)-7-(2-{2-[2-(2-fluoro-ethoxy)-ethoxy]-ethoxy}-ethoxy)-quinazoline-6-yl]-acetamide] |  |  | irreversibly bind to the EGFR |  | 135 to 137
